Read-outs that look alike come from different tables or passages of the source.
Key:
[1] = fall in serum triglyceride levels in male rats, 1 mg/kg per os; assay type: in vivo; settings: 3-methylpyrazole-5-carboxylic acid addition salts
Description: When administered to male rats the 3-methylpyrazole-5-carboxylic acid addition salts of the compound of the formula (IV) wherein R2 is respectively a methyl, ethyl, isopropyl and n-butyl at a dose of 1 mg/kg per os produced a fall in serum triglyceride levels of about 23%, 34%, 34% and 56% respectively.

[2] = acute toxicity (LD50) in mice; assay type: in vivo; settings: for LD50: mouse, in vivo, mice
[3] = oral test in normal rats starved for 17 hours: serum lipid lowering; assay type: in vivo; settings: rats starved 17 hours
Description: Similarly, a reduction in serum free fatty acid concentration of about 40-50% was produced over the dose range 0.15 mg/kg to 5 mg/kg.

[4] = different animal species and man; cited from earlier work

CC(C)N(CCO)CC(O)Cn1cnc2c(N)ncnc21 (centres unmarked)
fall in serum triglyceride levels [1]: ~34%

CCCCN(CCO)CC(O)Cn1cnc2c(N)ncnc21 (centres unmarked)
fall in serum triglyceride levels [1]: ~56%

CCN(CCO)CC(O)Cn1cnc2c(N)ncnc21 (centres unmarked)
fall in serum triglyceride levels [1]: ~34%

CN(CCO)CC(O)Cn1cnc2c(N)ncnc21 (stereo not drawn) [Example 1 (9-isomer), 6-Amino-9-[2-hydroxy-3-(N-methyl-N-2-hydroxyethyl)aminopropyl]purine]
acute toxicity ([2]; in words): low acute toxicity
LD50 ([2]; iv, intra-venous, read-out: LD50 by intra-venous administration): ~350 mg/kg
LD50 ([2]; oral, read-out: LD50 by oral administration): ~1000 mg/kg

CN(CCO)CC(O)Cn1cnc2c(N)ncnc21 (centres unmarked) [Example 2, 6-Amino-9-[2-hydroxy-3-(N-methyl-N-2-hydroxyethyl)aminopropyl]purine3-methylpyrazole-5-carboxylate]
reduction in serum triglyceride levels ([3]; 1 hour post administration, dose range 0.25 mg/kg to 25 mg/kg): 30-40%
reduction in serum cholesterol levels ([3]; dose of 100 mg/kg): about 30%
reduction in serum free fatty acid concentration ([3]; dose range 0.15 mg/kg to 5 mg/kg): 40-50%
fall in serum triglyceride levels [1]: about 23%

Nc1ncnc2c1ncn2C[C@@H](O)[C@@H](O)C(=O)O [lentinacin]
lowering of lipid components of plasma lipoproteins (cholesterol, triglycerides and phospholipids) [4]: lowers all lipid components of the plasma - lipoproteins

From patent US4123534A, “Adenine derivatives and hypolipidemic composition thereof” (Wulfing; Johann W., priority 1976, dated 1978)
